Values quoted from earlier work, collected in patent US20060069238A1, “Synthetic glyco-lipo-peptides as vaccines” (Biomira, Inc., priority 2002, published 2006).

Conditions: n-octanol:water, experimental database of LogKow; cited from earlier work

For Cc1c[nH]c2ccccc12 [3-methyl indole], the “LogP Exp” value is listed as 2.60.
